This note sets out measurements from US11572590B2, “Methods for evaluating tumor cell spheroids using 3D microfluidic cell culture device” (Dana-Farber Cancer Institute, Inc., priority 2017, dated 2023).

Experiment in all cases: SelectScreen Kinase Profiling, single point inhibition and IC50 for off-target kinases
Common to all, as to type: biochemical

Experiment [1] has as its target off-target kinases (Homo sapiens, UniProt Q13882).
Experiment [2] addresses off-target kinases (Homo sapiens, UniProt Q13557). The following applies: CAMK2D (CaMKII delta), ZLYTE, ATP Km app.
Experiment [3] concerns the target off-target kinases (Homo sapiens, UniProt Q9NYA1). Conditions: SPHK1, Adapta, ATP Km app.
Experiment [4] has as its target off-target kinases (Homo sapiens, UniProt P78362). Conditions: SRPK2; Cmpd1 1000 μM; ATP Km app; ZLYTE.
In experiment [5] the target is T1, off-target kinases (Homo sapiens, UniProt Q13043).
T1 sequence (Q13043 1-487): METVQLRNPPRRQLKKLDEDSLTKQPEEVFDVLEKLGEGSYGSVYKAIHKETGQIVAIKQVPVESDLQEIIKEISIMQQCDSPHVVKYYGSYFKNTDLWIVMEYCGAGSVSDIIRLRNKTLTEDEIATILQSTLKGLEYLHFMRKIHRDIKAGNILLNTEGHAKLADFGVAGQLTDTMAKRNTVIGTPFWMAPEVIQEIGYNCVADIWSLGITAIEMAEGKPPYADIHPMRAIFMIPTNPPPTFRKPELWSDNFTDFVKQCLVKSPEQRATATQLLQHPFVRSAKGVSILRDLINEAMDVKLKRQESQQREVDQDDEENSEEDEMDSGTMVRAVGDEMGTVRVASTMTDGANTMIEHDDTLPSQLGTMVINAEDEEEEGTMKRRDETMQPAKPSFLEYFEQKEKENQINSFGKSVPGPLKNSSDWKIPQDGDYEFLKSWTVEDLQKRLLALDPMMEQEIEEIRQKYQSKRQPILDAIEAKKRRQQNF

The target of experiment [6] is off-target kinases (Homo sapiens, UniProt O00506). Conditions: STK25 (YSK1), ZLYTE, ATP Km app.
Chain of off-target kinases (Homo sapiens, UniProt O00506) (O00506 whole entry): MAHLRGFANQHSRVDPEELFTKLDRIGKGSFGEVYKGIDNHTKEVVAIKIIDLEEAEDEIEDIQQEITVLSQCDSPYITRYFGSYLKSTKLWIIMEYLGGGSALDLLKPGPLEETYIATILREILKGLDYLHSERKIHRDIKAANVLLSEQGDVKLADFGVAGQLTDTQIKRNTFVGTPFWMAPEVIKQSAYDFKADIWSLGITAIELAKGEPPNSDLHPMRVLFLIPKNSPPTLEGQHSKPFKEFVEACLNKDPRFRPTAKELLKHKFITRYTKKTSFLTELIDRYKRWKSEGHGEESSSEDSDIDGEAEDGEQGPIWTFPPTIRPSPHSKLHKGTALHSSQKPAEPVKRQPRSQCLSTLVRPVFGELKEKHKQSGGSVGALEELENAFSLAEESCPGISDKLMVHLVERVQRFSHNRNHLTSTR
Experiment [7] addresses off-target kinases (Homo sapiens, UniProt P22455). Conditions: FGFR4, ZLYTE, ATP Km app.
For experiment [8], the target named is off-target kinases (Homo sapiens, UniProt Q9BUB5). Conditions: MKNK1 (MNK1), ATP Km app, ZLYTE.
Chain of off-target kinases (Homo sapiens, UniProt Q9BUB5) (Q9BUB5 whole entry): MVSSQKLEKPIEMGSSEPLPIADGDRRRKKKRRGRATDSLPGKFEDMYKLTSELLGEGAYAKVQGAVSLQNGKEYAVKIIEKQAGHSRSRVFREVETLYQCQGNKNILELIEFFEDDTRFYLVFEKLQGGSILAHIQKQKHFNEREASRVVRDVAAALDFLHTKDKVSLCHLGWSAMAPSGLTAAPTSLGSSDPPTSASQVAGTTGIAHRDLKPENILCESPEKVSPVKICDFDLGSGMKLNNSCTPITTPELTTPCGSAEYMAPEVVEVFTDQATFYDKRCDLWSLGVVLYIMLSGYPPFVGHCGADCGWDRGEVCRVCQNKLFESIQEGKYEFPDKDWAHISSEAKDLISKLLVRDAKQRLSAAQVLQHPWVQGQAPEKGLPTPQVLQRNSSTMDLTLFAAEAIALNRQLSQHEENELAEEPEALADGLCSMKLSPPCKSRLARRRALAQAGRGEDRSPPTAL

Like-named read-outs stand apart in the source and are kept apart here.

Chain of off-target kinases (Homo sapiens, UniProt Q9NYA1) (Q9NYA1 whole entry): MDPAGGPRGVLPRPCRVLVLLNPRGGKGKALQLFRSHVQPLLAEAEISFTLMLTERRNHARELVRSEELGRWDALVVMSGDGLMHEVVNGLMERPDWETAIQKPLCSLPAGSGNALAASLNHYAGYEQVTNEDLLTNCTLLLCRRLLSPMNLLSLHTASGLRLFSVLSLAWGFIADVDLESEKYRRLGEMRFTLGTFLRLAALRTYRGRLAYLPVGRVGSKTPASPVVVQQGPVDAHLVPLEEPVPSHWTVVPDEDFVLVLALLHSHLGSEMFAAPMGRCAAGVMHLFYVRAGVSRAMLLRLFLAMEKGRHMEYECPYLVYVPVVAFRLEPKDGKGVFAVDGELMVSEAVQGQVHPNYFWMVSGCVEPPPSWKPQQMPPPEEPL
Chain of off-target kinases (Homo sapiens, UniProt Q13882) (Q13882 whole entry): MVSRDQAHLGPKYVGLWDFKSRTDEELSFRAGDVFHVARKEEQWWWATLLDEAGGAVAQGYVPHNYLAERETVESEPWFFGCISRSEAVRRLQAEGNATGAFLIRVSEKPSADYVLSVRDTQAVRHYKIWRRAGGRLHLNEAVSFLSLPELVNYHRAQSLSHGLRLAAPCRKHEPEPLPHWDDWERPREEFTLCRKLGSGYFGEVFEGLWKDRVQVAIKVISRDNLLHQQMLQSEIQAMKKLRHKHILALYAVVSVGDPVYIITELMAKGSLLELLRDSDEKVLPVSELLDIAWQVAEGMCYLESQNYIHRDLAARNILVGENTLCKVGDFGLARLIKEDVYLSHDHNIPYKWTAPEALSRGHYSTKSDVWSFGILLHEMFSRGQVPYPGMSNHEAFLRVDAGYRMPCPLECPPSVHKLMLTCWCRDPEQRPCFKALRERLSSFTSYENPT
Chain of off-target kinases (Homo sapiens, UniProt P22455) (P22455 22-802): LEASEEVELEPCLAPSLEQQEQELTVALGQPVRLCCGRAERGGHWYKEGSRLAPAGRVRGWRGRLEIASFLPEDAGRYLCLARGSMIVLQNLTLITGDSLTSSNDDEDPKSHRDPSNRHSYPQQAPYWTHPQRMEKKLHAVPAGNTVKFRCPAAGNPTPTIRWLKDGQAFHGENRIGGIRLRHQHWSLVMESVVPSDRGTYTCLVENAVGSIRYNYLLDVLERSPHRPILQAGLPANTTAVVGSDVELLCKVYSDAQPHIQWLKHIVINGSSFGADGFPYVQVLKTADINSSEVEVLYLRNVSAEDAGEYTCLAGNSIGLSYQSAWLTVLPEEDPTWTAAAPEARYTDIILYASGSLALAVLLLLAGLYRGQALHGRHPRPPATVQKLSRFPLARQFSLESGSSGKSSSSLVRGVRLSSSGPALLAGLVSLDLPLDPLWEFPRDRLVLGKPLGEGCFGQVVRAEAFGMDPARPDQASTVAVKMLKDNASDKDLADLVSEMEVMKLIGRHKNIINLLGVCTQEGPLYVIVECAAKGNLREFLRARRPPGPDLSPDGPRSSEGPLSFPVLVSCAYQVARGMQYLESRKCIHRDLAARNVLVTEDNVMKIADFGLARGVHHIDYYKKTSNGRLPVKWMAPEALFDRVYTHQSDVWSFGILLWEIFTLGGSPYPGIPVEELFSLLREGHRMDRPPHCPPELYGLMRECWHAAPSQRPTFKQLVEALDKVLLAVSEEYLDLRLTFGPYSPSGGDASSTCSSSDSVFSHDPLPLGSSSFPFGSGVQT
Chain of off-target kinases (Homo sapiens, UniProt P78362) (P78362 whole entry): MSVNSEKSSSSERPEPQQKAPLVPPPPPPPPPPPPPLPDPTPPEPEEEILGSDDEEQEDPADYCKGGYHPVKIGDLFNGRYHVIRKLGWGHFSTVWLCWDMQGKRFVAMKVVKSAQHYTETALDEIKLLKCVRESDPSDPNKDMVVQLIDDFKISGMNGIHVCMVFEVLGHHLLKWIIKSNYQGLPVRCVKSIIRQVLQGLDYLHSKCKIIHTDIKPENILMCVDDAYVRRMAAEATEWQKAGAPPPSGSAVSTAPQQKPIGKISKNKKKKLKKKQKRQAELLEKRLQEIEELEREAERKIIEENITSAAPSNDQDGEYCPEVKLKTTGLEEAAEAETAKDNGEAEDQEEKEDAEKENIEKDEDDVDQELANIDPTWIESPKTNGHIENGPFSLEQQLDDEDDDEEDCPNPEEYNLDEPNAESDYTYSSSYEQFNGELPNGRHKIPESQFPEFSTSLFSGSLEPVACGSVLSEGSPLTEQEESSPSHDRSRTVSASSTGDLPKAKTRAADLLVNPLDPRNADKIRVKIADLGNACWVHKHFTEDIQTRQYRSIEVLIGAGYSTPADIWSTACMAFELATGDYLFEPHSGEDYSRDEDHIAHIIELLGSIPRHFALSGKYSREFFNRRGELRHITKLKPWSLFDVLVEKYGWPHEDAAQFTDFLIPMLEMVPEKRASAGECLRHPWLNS
Chain of off-target kinases (Homo sapiens, UniProt Q13557) (Q13557 whole entry): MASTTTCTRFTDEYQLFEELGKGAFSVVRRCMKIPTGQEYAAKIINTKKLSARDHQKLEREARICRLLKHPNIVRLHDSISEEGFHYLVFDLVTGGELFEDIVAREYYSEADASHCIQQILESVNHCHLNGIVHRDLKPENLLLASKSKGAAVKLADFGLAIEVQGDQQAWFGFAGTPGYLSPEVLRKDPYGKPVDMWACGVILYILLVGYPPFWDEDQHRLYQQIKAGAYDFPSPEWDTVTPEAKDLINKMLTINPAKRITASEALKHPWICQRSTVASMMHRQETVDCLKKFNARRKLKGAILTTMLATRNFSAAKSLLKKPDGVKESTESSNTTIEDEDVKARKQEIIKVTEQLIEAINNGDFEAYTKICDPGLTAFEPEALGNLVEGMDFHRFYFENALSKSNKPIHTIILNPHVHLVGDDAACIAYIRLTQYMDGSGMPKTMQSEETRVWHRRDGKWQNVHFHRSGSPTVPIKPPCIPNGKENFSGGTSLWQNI

Regarding `N#Cc1cc(-c2ncnc(Nc3ccc(N4CCN(C5COC5)CC4)cc3)n2)ccc1OC1CCOCC1` [Compound 1, 5-(4-((4-(4-(oxetan-3-yl)piperazin-1-yl)phenyl)amino)-1,3,5-triazin-2-yl)-2-((tetrahydro-2H-pyran-4-yl)oxy)benzonitrile], the inhibition was -1% in experiment [1] (PTK6 (Brk), ZLYTE, ATP Km app, read-out: % Inhibition 2); -1% in experiment [1] (read-out: % Inhibition 1); -1% in experiment [1] (read-out: % Inhibition Avg); 18% in experiment [2] (read-out: % Inhibition 1); 19% in experiment [2] (read-out: % Inhibition 2); 19% in experiment [2] (read-out: % Inhibition Avg). Further, the inhibition was 10% in experiment [3] (read-out: % Inhibition 1); -9% in experiment [3] (read-out: % Inhibition 2); 0% in experiment [3] (read-out: % Inhibition Avg); 0% in experiment [5] (STK4 (MST1), ZLYTE, ATP Km app, read-out: % Inhibition Avg); 0% in experiment [5] (read-out: % Inhibition 1); 0% in experiment [5] (read-out: % Inhibition 2). Besides, the inhibition in experiment [6] (read-out: % Inhibition 1) was 0%; in experiment [6] (read-out: % Inhibition 2), -4%; in experiment [6] (read-out: % Inhibition Avg) it was -2%; in experiment [7] (read-out: % Inhibition 1) it was 7%; in experiment [7] (read-out: % Inhibition 2), -2%; in experiment [7] (read-out: % Inhibition Avg), 3%. For the same molecule, the inhibition in experiment [8] (read-out: % Inhibition 1) came to 99%; in experiment [8] (read-out: % Inhibition 2), 100%; in experiment [8] (read-out: % Inhibition Avg), 100%. The “% Inhibition 1” value in experiment [4] is −2%. Also, the “% Inhibition 2” value in experiment [4] is listed as −4%. Besides, the “% Inhibition Avg” value in experiment [4] is recorded as −3%.
